According to article PMC6789456, “Ursolic Acid Derivatives as Potential Agents Against Acanthamoeba Spp” (Pathogens, 2019):

Columns and labels:
Acanthamoeba spp. cysts = experiment: In vitro effect against the cyst stage, Alamar Blue assay; type: cell-based; conditions: both strains, viability of cysts
Protocol: The cysticidal activity was determined by the Alamar Blue assay at 144 h and confirmed visually by inverted microscopy. Cysts of both strains were prepared as described by Lorenzo-Morales et al. (2008). Briefly, trophozoite were transferred from PYG medium based cultures (trophozoite medium) to Neff´s encystment medium (NEM; 0.1 M KCl, 8 mM MgSO4·7H2O, 0.4 mM CaCl2·2H2O, 1 mM NaHCO3, and 20 mM ammediol (2-amino-2-methyl-1,3-propanediol; Sigma Aldrich Chemistry Ltd., Madrid, Spain), pH 8.8, at 25 °C) and were cultured in this medium with gentle shaking for a week in order to obtain mature cysts. After that, mature cysts were harvested and washed twice using the PYG medium.
A serial dilution of the tested molecules was made in PYG. The in vitro susceptibility assay was performed in sterile 96-well microtiter plates (Corning™). To these wells the drug concentration to be tested and 5 × 10^4 mature cysts of Acanthamoeba/ml were added. The final volume was 100 μL in each well. After 7 days of incubation with the drugs, the plate was centrifuged at 3000 rpm for 10 min. […] Finally, 10 μL of the Alamar Blue assay reagent (Biosource, Europe, Nivelles, Belgium) was placed into each well, and the plates were then incubated for 144 h at 28 °C with slight agitation and the emitted fluorescence was periodically examined with an Enspire microplate reader (PerkinElmer, Waltham, MA, USA) at 570/585 nm.

Acanthamoeba griffini = experiment: In vitro effect against the trophozoite stage, Alamar Blue assay; type: cell-based; conditions: 96 h, trophozoites, mean ± SD
Protocol: (§1) The anti-Acanthamoeba activity of molecules was evaluated against the Acanthamoeba castellanii Neff (ATCC 30010) type strain from the American Type Culture Collection and Acanthamoeba griffini obtained in previous studies. Those strains were grown axenically in Peptone Yeast Glucose (PYG) medium (0.75% (w/v) proteose peptone, 0.75% (w/v) yeast extract, and 1.5% (w/v) glucose) containing 40 μg of gentamicin ml−1 (Biochrom AG, Cultek, Granollers, Barcelona, Spain).
(§2) The anti-Acanthamoeba activities of the compounds were determined by the Alamar Blue assay as previously described. Briefly, Acanthamoeba strains were seeded in duplicate on a 96-well microtiter plate with 50 μL from a stock solution of 10^4 cells mL^−1. Amoebae were allowed to adhere for 15 min and 50 μL of serial dilution series of the eye drop solution was added. Finally, the Alamar Blue assay reagent (Bioresource, Europe, Nivelles, Belgium) was added into each well at an amount equal to 10% of the medium volume. The plates were then incubated for 96 h at 28 °C with a slight agitation and the emitted fluorescence was measured with an Enspire microplate reader (PerkinElmer, Massachusetts, USA) at 570/585 nm.

[1] = tested on: Acanthamoeba castellanii Neff; experiment: as above; type: cell-based; conditions: for IC90: concentration used in the double-stain assay, A. castellanii Neff trophozoites; for IC50: trophozoites, Alamar blue, 96 h, mean ± SD
Protocol: as §1, §2

[2] = tested on: Acanthamoeba castellanii Neff; experiment: Mitochondrial membrane potential, JC-1; type: cell-based; conditions: treated with IC90, 24 h; for decrease of mitochondrial membrane potential (ΔΨm): ratio of fluorescence 590/530 nm
Protocol: The collapse of an electrochemical gradient across the mitochondrial membrane during apoptosis was detected with the JC-1 mitochondrial membrane potential detection kit (Cell Technology). After being treated with IC90 of the test solution for 24 h, the cells were centrifuged (1000 r.p.m. × 10 min) and resuspended in JC-1 buffer. After that, 100 µL of each treated culture was added to a black 96 well plate (PerkinElmer) then 10 µL of JC-1 was added and incubated at 26 °C for 30 min. Analysis for the mean green and red fluorescence intensity was done using an Enspire microplate reader (PerkinElmer, Waltham, MA, USA) after 30 minutes. As well as images were taken on an EVOS fluorescence microscope from the Advanced Microscopy Group (AMG). The staining pattern allows the identification of two groups in a cellular population: Live cells will show only red fluorescence; and cells with low mitochondrial potential, (undergoing PCD) will show a higher level of green and red fluorescence.

[3] = tested on: Acanthamoeba castellanii Neff trophozoite; experiment: Double-stain assay (Hoechst 33342/PI) for programmed cell death; type: cell-based; conditions: treated with IC90, 24 h; for Propidium Iodide (PI) stain: data not shown
Protocol: A double-stain apoptosis detection kit (Hoechst 33342/PI; GenScript, Piscataway, NJ, USA) and an inverted confocal microscope (Leica DMI 4000B) were used. The experiment was carried out by following the manufacturer’s recommendations, and 10^5 cells/well were incubated in a 24-well plate for 24 h with the previously calculated IC90. The double-staining pattern allows the identification of three groups in a cellular population: Live cells will show only a low level of fluorescence, cells undergoing PCD will show a higher level of blue fluorescence (as chromatin condenses), and dead cells will show low-blue and high-red fluorescence (as the propidium iodide stain enters the nucleus).

Acanthamoeba Neff = experiment: Intracellular ROS production, CellROX Deep Red staining; type: cell-based, Acanthamoeba castellanii; conditions: treated with IC90, 24 h, vs negative control
Protocol: The generation of intracellular ROS was detected using the CellROX® Deep Red fluorescent probe (Invitrogen). The cells were treated with IC90 of both 5 and 7 for 24 h and exposed to CellROX® Deep Red (5 μM, 30 min) at 26 °C in the dark.

[4] = Solubility (comparison in words); type: physicochemical; conditions: compared to the origin compound 1 (ursolic acid)
[5] = Cytotoxicity, Alamar Blue assay; type: cell-based; conditions: mouse, J774.A1 macrophage cell line (ATCC TIB-67), J774.A1, 24 h, mean ± SD, >100 if inhibition did not reach 50% at the highest concentration, read-out: Murine Macrophages CC50
Protocol: Cytotoxicity of the selected compounds was evaluated after 24 h incubation of murine macrophage J774.A1 cell line (ATCC # TIB-67) with different concentrations of the tested compounds at 37 °C in a 5% CO2 humidified incubator. The viability of the macrophages was determined with the Alamar Blue assay as previously described.

[6] = tested on: murine macrophage J774.A1 cell line; experiment: Cytotoxicity, Alamar Blue assay; type: cell-based; conditions: 50 µM, J774A.1, inverted microscopy, compared to 1

Row | SMILES | IC50 (Acanthamoeba griffini; Acanthamoeba griffini) | IC90 [1] | IC50 [1] | solubility [4] | IC50 (Acanthamoeba griffini) | cysticidal effect (Acanthamoeba spp. cysts) | mitochondrial membrane potential, JC-1 imaging [2] | decrease of mitochondrial membrane potential (ΔΨm) [2] | chromatin condensation (Hoechst 33342 stain) [3] | Propidium Iodide (PI) stain [3] | reactive oxygen species (ROS) levels (Acanthamoeba Neff) | CC50 at 24 h [5] | effect on morphology of murine macrophages [6]
1 | COC(=O)[C@]12CC[C@@H](C)[C@H](C)C1C1=CCC3[C@@]4(C)CC[C@H](OC(C)=O)C(C)(C)C4CC[C@@]3(C)[C@]1(C)CC2 (some centres unmarked) [Compound 6] | 9.1 ± 1 µM | – | 37.1 ± 1.3 µM | – | – | – | – | – | – | – | – | > 100 µM | –
2 | CC(=O)O[C@H]1CC[C@@]2(C)C(CC[C@]3(C)C2CC=C2C4[C@@H](C)[C@H](C)CC[C@]4(C(=O)O)CC[C@]23C)C1(C)C (some centres unmarked) [Compound 2] | 11.1 ± 0.8 µM | – | 24.2 ± 0.3 µM | – | – | – | – | – | – | – | – | 93.2 ± 7.2 µM | –
3 | COC(=O)[C@]12CC[C@@H](C)[C@H](C)C1C1=CCC3[C@@]4(C)CC[C@H](O)C(C)(C)C4CC[C@@]3(C)[C@]1(C)CC2 (some centres unmarked) [Compound 4] | 8.7 ± 0.4 µM | – | 21.9 ± 0.9 µM | – | – | – | – | – | – | – | – | 26.3 ± 1.7 µM | –
4 | COC(=O)[C@]12CC[C@@H](C)[C@H](C)C1C1=CCC3[C@@]4(C)CC[C@H](OC)C(C)(C)C4CC[C@@]3(C)[C@]1(C)CC2 (some centres unmarked) [Compound 5] | 6.9 ± 1.5 µM | 86 µM | 22.7 ± 1.4 µM | higher than the origin compound 1 | – | dose-dependent cysticidal effect | depolarize the mitochondrial membrane potential | 49.0% | induced chromatin condensation | did not stain | increased | > 100 µM | did not affect the morphology

The next lines start with results.

Row | IC50 (Acanthamoeba griffini; Acanthamoeba griffini) | IC90 [1] | IC50 [1] | solubility [4] | IC50 (Acanthamoeba griffini) | SMILES | cysticidal effect (Acanthamoeba spp. cysts) | mitochondrial membrane potential, JC-1 imaging [2] | decrease of mitochondrial membrane potential (ΔΨm) [2] | chromatin condensation (Hoechst 33342 stain) [3] | Propidium Iodide (PI) stain [3] | reactive oxygen species (ROS) levels (Acanthamoeba Neff) | CC50 at 24 h [5] | effect on morphology of murine macrophages [6]
5 | 6.7 ± 1.8 µM | 75 µM | 21.4 ± 1.3 µM | higher than the origin compound 1 | – | COC(=O)[C@]12CC[C@@H](C)[C@H](C)C1C1=CCC3[C@@]4(C)CC[C@H](OC(=O)c5ccc([N+](=O)[O-])cc5)C(C)(C)C4CC[C@@]3(C)[C@]1(C)CC2 (stereo partly drawn) [Compound 7, 3β-(p-nitrobenzoyloxy)-urs-12-en-28-oic acid methyl ester] | dose-dependent cysticidal effect | depolarize the mitochondrial membrane potential | 35.0% | induced chromatin condensation | did not stain | increased | > 100 µM | –
6 | 3.73 ± 0.98 µM | – | – | – | – | [H]/N=C(\N/C(=N/[H])NCCCCCCNC(=N)NC(=N)Nc1ccc(Cl)cc1)Nc1ccc(Cl)cc1 [Chlorhexidine, reference compound] | – | – | – | – | – | – | 7.4 ± 0.39 µM | –
7 | 11.5 ± 0.8 µM | – | 33.5 ± 2.1 µM | – | – | COC(=O)[C@]12CC[C@@H](C)[C@H](C)C1C1=CCC3[C@@]4(C)CC[C@H](OC(=O)c5ccccc5)C(C)(C)C4CC[C@@]3(C)[C@]1(C)CC2 (some centres unmarked) [Compound 8] | – | – | – | – | – | – | > 100 µM | –
8 | 10.2 ± 0.5 µM | – | 34.9 ± 1.5 µM | – | – | C[C@@H]1CC[C@]2(C(=O)O)CC[C@]3(C)C(=CCC4[C@@]5(C)CCC(=O)C(C)(C)C5CC[C@]43C)C2[C@H]1C (some centres unmarked) [Compound 3] | – | – | – | – | – | – | > 100 µM | –
9 | 15.3 µM | – | 40 ± 2.7 µM | – | 15.2 ± 0.3 µM | C[C@H]1[C@H](C)CC[C@]2(C(=O)O)CC[C@]3(C)C(=CC[C@@H]4[C@@]5(C)CC[C@H](O)C(C)(C)[C@@H]5CC[C@]43C)[C@H]12 [Compound 1, Ursolic acid] | – | – | – | – | – | – | 17.7 ± 3.3 µM | –
